Results: ChEMBL document CHEMBL3745627, “A Methylene Group on C-2 of 24,24-Difluoro-19-nor-1α,25-dihydroxyvitamin D3 Markedly Increases Bone Calcium Mobilization in Vivo” (J Med Chem, 2015)
pEC50, pKi: −log10 of the molar value.

What was measured:
HL-60 [1] = experiment: Induction of human HL60 cell differentiation assessed as differentiation from promyelocytes to monocytes by NBT assay; type: functional; settings: read-out: ED50 (the source's name)
HL-60 [2] = experiment: Potency index, ratio ED50 of 1alpha,25-(OH)2D3 to ED50 of compound for induction of human HL60 cell differentiation; type: functional
Vitamin D3 receptor = molecular target: T1, Vitamin D3 receptor (Rattus norvegicus, UniProt P13053); experiment: Displacement of [3H]1alpha,25-(OH)2D3 from full-length recombinant rat VDR by scintillation counter
T1 sequence (P13053 whole entry): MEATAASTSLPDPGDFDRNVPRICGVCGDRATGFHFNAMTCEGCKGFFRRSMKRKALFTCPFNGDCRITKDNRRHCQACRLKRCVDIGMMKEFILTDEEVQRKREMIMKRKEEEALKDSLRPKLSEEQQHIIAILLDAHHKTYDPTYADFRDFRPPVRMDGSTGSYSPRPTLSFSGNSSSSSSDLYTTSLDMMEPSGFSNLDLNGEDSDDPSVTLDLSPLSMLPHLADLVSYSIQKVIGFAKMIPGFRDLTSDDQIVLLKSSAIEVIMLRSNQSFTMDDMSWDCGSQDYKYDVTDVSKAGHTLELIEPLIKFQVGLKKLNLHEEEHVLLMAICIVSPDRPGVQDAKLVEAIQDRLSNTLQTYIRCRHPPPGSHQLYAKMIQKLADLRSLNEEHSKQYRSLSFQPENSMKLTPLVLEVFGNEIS

[3] = molecular target: T2, Vitamin D3 receptor (Rattus norvegicus) (UniProt P13053); experiment: Transactivation of VDR in rat osteosarcoma cells assessed as 24-hydroxylase transcriptional activity by luciferase reporter gene assay; type: cell-based
T2 sequence (whole entry): T1 sequence (P13053 whole entry)

Rattus norvegicus [4] = experiment: Induction of bone mobilization activity in weaning Sprague-Dawley rat assessed as increase in serum calcium level at 260 pmol, ip for 4 consecutive dose at an interval of 24 hrs measured 24 hrs after last dose (reference value: 4.4 to 4.5 mg/dl); type: functional
Rattus norvegicus [5] = experiment: Induction of intestinal calcium transport in weaning Sprague-Dawley rat assessed as ratio of calcium level in serosal to mucosal at 260 pmol, ip for 4 consecutive dose at an interval of 24 hrs measured 24 hrs after last dose (reference value: 3.7 to 4.8); type: functional
Rattus norvegicus [6] = experiment: Induction of intestinal calcium transport in weaning Sprague-Dawley rat assessed as ratio of calcium level in serosal to mucosal at 780 pmol, ip for 4 consecutive dose at an interval of 24 hrs measured 24 hrs after last dose (reference value: 3.7 to 4.8); type: functional
Rattus norvegicus [7] = experiment: Induction of intestinal calcium transport in weaning Sprague-Dawley rat assessed as ratio of calcium level in serosal to mucosal at 16 pmol, ip for 4 consecutive dose at an interval of 24 hrs measured 24 hrs after last dose (reference value: 3.7 to 4.8); type: functional
Rattus norvegicus [8] = experiment: Induction of bone mobilization activity in weaning Sprague-Dawley rat assessed as increase in serum calcium level at 780 pmol, ip for 4 consecutive dose at an interval of 24 hrs measured 24 hrs after last dose (reference value: 4.4 to 4.5 mg/dl); type: functional
Rattus norvegicus [9] = experiment: Induction of bone mobilization activity in weaning Sprague-Dawley rat assessed as increase in serum calcium level at 16 pmol, ip for 4 consecutive dose at an interval of 24 hrs measured 24 hrs after last dose (reference value: 4.4 to 4.5 mg/dl); type: functional
Rattus norvegicus [10] = experiment: Induction of bone mobilization activity in weaning Sprague-Dawley rat assessed as increase in serum calcium level at 32 pmol, ip for 4 consecutive dose at an interval of 24 hrs measured 24 hrs after last dose (reference value: 4.4 to 4.5 mg/dl); type: functional
Rattus norvegicus [11] = experiment: Induction of intestinal calcium transport in weaning Sprague-Dawley rat assessed as ratio of calcium level in serosal to mucosal at 32 pmol, ip for 4 consecutive dose at an interval of 24 hrs measured 24 hrs after last dose (reference value: 3.7 to 4.8); type: functional
Rattus norvegicus [12] = experiment: Induction of bone mobilization activity in weaning Sprague-Dawley rat assessed as increase in serum calcium level at 87 pmol, ip for 4 consecutive dose at an interval of 24 hrs measured 24 hrs after last dose (reference value: 4.4 to 4.5 mg/dl); type: functional

SMILES	pEC50 (HL-60 [1])	pKi (Vitamin D3 receptor)	ED50 [3] [nM]	Ratio ED50 (HL-60 [2])	Activity (Rattus norvegicus [4]) [mg/dL]	Ratio (Rattus norvegicus [5])	Ratio (Rattus norvegicus [6])	Ratio (Rattus norvegicus [7])	Activity (Rattus norvegicus [8]) [mg/dL]	Activity (Rattus norvegicus [9]) [mg/dL]	Activity (Rattus norvegicus [10]) [mg/dL]	Ratio (Rattus norvegicus [11])	Activity (Rattus norvegicus [12]) [mg/dL]
C=C1[C@H](O)CC(=C/C=C2\CCC[C@]3(C)[C@@H]([C@@H](C)CCC(F)(F)C(C)(C)O)CC[C@@H]23)C[C@H]1O	10.52	10.52	0.02	100	9.5	12.4	8.7	6.6	9.8	5.8			
C[C@@H](CCC(F)(F)C(C)(C)O)[C@H]1CC[C@H]2/C(=C/C=C3C[C@@H](O)C[C@H](O)C3)CCC[C@]12C	10.22	10.52	0.04	50	8.5	8.8	11.5	6.6	9.8	5.8			
C=C1/C(=C\C=C2/CCC[C@]3(C)[C@@H]([C@H](C)CCCC(C)(C)O)CC[C@@H]23)C[C@@H](O)C[C@@H]1O [CALCITRIOL]									7.6	5.3			6.6
C=C1[C@H](O)CC(=C/C=C2\CCC[C@]3(C)[C@@H]([C@H](C)CCC(F)(F)C(C)(C)O)CC[C@@H]23)C[C@H]1O	10.00	10.40	0.01	30	9.4	11.6	16.4		11.2		6	11.7	

The remaining compounds from weak to strong by pEC50 (HL-60 [1]), led by results:

pEC50 (HL-60 [1])	pKi (Vitamin D3 receptor)	ED50 [3] [nM]	SMILES	Ratio ED50 (HL-60 [2])	Activity (Rattus norvegicus [4]) [mg/dL]	Ratio (Rattus norvegicus [5])	Ratio (Rattus norvegicus [6])	Ratio (Rattus norvegicus [7])	Activity (Rattus norvegicus [8]) [mg/dL]	Activity (Rattus norvegicus [9]) [mg/dL]	Activity (Rattus norvegicus [10]) [mg/dL]	Ratio (Rattus norvegicus [11])	Activity (Rattus norvegicus [12]) [mg/dL]
10.30	10.70	0.04	C[C@H](CCC(F)(F)C(C)(C)O)[C@H]1CC[C@H]2/C(=C/C=C3C[C@@H](O)C[C@H](O)C3)CCC[C@]12C	60	4.9	6.9	7.7		5.9		4.9	9.4	
10.70	10.52	0.007	C=C1[C@H](O)CC(=C/C=C2\CCC[C@]3(C)[C@@H]([C@H](C)CCCC(C)(C)O)CC[C@@H]23)C[C@H]1O	150									
